The values below come from patent US20030013660A1, “Dioxolane analogs for improved inter-cellular delivery” (Shire BioChem Inc., priority 2000, published 2003).

Where “and” joins values, the source holds several entries; their conditions need not be identical. Equal values may be shown once. A value given as a limit tells only on which side of the number the result lay.

Experiment [1] relates to CCRF-CEM. Nature of the experiment: 3H-TdR incorporation at 72 hr (24 hr drug exposure, wash, 48 hr). Format: cell-based. The conditions noted are these: read-out: IC50 in μM (3H-TdR incorporation at 72 hr) CCRF-CEM 24 h, CCRF-CEM T-cell Leukemia, 72 hr assay. The protocol: (§1) Exposition of 24 hr to drug, wash, incubated for another 48 hr (total of 72 hr assay)
(§2) (3H-Thymidine Incorporation Assay)

For experiment [2], the system named is CEM/dCK-. The description is as above. The conditions noted are these: for IC50: Homo sapiens, CCRF-CEM, read-out: IC50 in μM (3H-TdR incorporation at 72 hr) CEM/dCK- 24 h, CCRF-CEM deoxycytidine kinase-deficient, 24 h drug exposure, 72 hr assay. It counts as cell-based. The protocol: as §1, §2
Experiment [3] deals with H-460. The description is as above. Format: cell-based, Human. The method, then: as §1, §2
The test system of experiment [4] is MCF-7. The description is as above. Format: cell-based, Human. The conditions noted are these: Homo sapiens, MCF7, read-out: IC50 in μM (3H-TdR incorporation at 72 hr) MCF-7 24 h, MCF-7 Human Breast Carcinoma, 72 hr assay. The method, then: as §1, §2
For experiment [5], the system named is SF-268. Described as above. It counts as cell-based, Human. The settings on record: Homo sapiens, SF-268, read-out: IC50 in μM (3H-TdR incorporation at 72 hr) SF-268 24 h, SF-268 Human Central Nervous System Tumor; 24 h drug exposure, 72 hr assay. The method, then: as §1, §2
The subject of experiment [6] is H-460. Nature of the experiment: 3H-TdR (3H-thymidine) incorporation assay at 72 hr. Format: cell-based, Human. The settings on record: Homo sapiens.
Experiment [7] relates to MCF-7. Description: 3H-TdR (3H-thymidine) incorporation assay at 72 hr. The conditions noted are these: Homo sapiens. Format: cell-based, Human.
The subject of experiment [8] is SF-268. Description: 3H-TdR (3H-thymidine) incorporation assay at 72 hr. The conditions noted are these: Homo sapiens. It counts as cell-based, Human.
For experiment [9], the system named is CCRF-CEM. Description: 3H-TdR (3H-thymidine) incorporation assay at 72 hr. Format: cell-based. The conditions noted are these: Homo sapiens, CCRF-CEM. The method, then:
(§3) Table of IC50 Values (μM) for Controls
as §1, §2

In experiment [10] the test system is CEM/dCK-. Nature of the experiment: 3H-TdR (3H-thymidine) incorporation assay at 72 hr. Format: cell-based. The settings on record: for IC50: Homo sapiens, CCRF-CEM; for Factor* (Resistance Factor = Ratio of dCK- on Wild-type CCRF-CEM): ratio of IC50 CEM/dCK- to CCRF-CEM, 24 h. The protocol:
as §3, §1, §2

The mark [11] stands for this setting: Homo sapiens, NCI-H460, read-out: IC50 in μM (3H-TdR incorporation at 72 hr) H-460 24 h, H-460 Human Lung Carcinoma, 72 hr assay.
[12] abbreviates: NCI-H460, read-out: IC50 H-460 24 h.
[13] abbreviates: MCF7, read-out: IC50 MCF-7 24 h.
The mark [14] stands for this setting: SF-268, read-out: IC50 SF-268 24 h.

On to `O=c1nc(NS(=O)(=O)c2ccc([N+](=O)[O-])cc2)ccn1[C@@H]1CO[C@H](CO)O1` [Compound 168, N-[1-(2-HYDROXYMETHYL- [1,3]DIOXOLAN-4-YL)-2- OXO-1,2-DIHYDRO- PYRIMIDIN-4-YL]-4- NITRO- BENZENESULFONAMIDE], for which the IC50 in experiment [1] (Homo sapiens, CCRF-CEM) was 31 µM; in [1], 22 µM and 20 µM; in experiment [2], > 100 µM.

Consider `CC(C)(C)OC(=O)N(CCCCCCNC(=O)OC[C@H]1OC[C@@H](n2ccc(N)nc2=O)O1)Cc1ccccc1` [Compound 214, {6-[4-(4-AMINO-2-OXO- 2H-PYRIMIDIN-1-YL)- [1,3]DIOXOLAN-2- YLMETHOXYCARBONYLAMINO]-HEXYL}-BENZYL-CARBAMIC ACID TERT-BUTYL ESTER], for which the IC50 is 9.4 µM in experiment [3] (setting [11]), 9.4 µM in experiment [4], 89 µM in experiment [5] and > 100 µM in [2].

As to `CC(C)(C)C(=O)Oc1ccc(COC(=O)Nc2ccn([C@@H]3CO[C@H](CO)O3)c(=O)n2)cc1` [Compound 213, 2,2-DIMETHYL-PROPIONIC ACID 4-[1-(2- HYDROXYMETHYL- [1,3]DIOXOLAN-4-YL)-2- OXO-1,2-DIHYDRO- PYRIMIDIN-4- YLCARBAMOYLOXYMETHYL]- PHENYL ESTER], the IC50 in experiment [3] (setting [11]) is ≤ 0.0001 µM; in experiment [4], 0.00027 µM; in experiment [5], 0.012 µM; in experiment [2], 1.1 µM.

For the compound `Nc1ccn([C@@H]2CO[C@H](COC(=O)c3ccccc3-c3ccccc3)O2)c(=O)n1` [Compound 209, BIPHENYL-2-CARBOXYLIC ACID 4-(4-AMINO-2-OXO- 2#H!-PYRIMIDIN-1-YL)- [1,3]DIOXOLAN-2-YL METHYL ESTER], the IC50 is 0.31 µM in experiment [3] (setting [11]), 1.3 µM in experiment [4], 0.59 µM in experiment [5] and > 100 µM in [2].

Turning to `Nc1ccn([C@@H]2CO[C@H](COC3(c4ccccc4)c4ccccc4Oc4ccccc43)O2)c(=O)n1` [Compound 146, 4-AMINO-1-[2-(9-PHENYL- 9#H!-XANTHEN-9- YLOXYMETHYL)- [1,3]DIOXOLAN-4-YL]- 1#H!-PYRIMIDIN-2-ONE], the IC50 in experiment [6] (NCI-H460, read-out: IC50 H-460 24 h, 24 h drug exposure, wash, another 48 hr, 3H-TdR incorporation at 72 hr) was 780 nM; in [7] (MCF7, read-out: IC50 MCF-7 24 h, 24 h drug exposure, wash, another 48 hr, 3H-TdR incorporation at 72 hr) it was 1200 nM; in [8] (SF-268, read-out: IC50 SF-268 24 h, 24 h drug exposure, wash, another 48 hr, 3H-TdR incorporation at 72 hr), 28 nM; in experiment [9] (read-out: IC50 CCRF-CEM 24 h, 24 h drug exposure, wash, another 48 hr, 3H-TdR incorporation at 72 hr) it was 130 nM; in [10] (read-out: IC50 CEM/dCK- 24 h, 24 h drug exposure, wash, another 48 hr, deoxycytidine kinase-deficient CCRF-CEM), 50000 nM. For the same compound, the “Factor* (Resistance Factor = Ratio of dCK- on Wild-type CCRF-CEM)” value in experiment [10] was 385.

Turning to `Nc1ccn([C@@H]2CO[C@H](COC(=O)c3ccc([N+](=O)[O-])cc3)O2)c(=O)n1` [Compound 204, 4-NITRO-BENZOIC ACID 4- (4-AMINO-2-OXO-2H- PYRIMIDIN-1-YL)- [1,3]DIOXOLAN-2-YL METHYL ESTER], the IC50 in experiment [3] (read-out: IC50 in μM (3H-TdR incorporation at 72 hr) H-460 24 h, H-460 Human Lung Carcinoma, 72 hr assay) was 0.015 µM. For the same compound, the “Factor* (Resistance Factor = Ratio of dCK- on Wild-type CCRF-CEM)” value in [2] (ratio of IC50 CEM/dCK- to IC50 CCRF-CEM) is given as 1600.

Turning to `O=C(Nc1ccn([C@@H]2CO[C@H](CO)O2)c(=O)n1)Oc1ccccc1` [Compound 44, [1-(2-HYDROXYMETHYL- [1,3]DIOXOLAN-4-YL)-2- OXO-1,2-DIHYDRO- […]-4-YL]- CARBAMIC ACID PHENYL ESTER], the IC50 was 370 nM in [6] (setting [12]); 970 nM in [7] (setting [13]); 890 nM in experiment [8] (setting [14]); 77 nM in experiment [9] (read-out: IC50 CCRF-CEM 24 h); > 100000 nM in experiment [10] (read-out: IC50 CEM/dCK- 24 h). Also, the “Factor* (Resistance Factor = Ratio of dCK- on Wild-type CCRF-CEM)” value in [10] was 1,300.

As to `O=C(Nc1ccn([C@@H]2CO[C@H](COC(=O)Oc3ccc(Cl)cc3)O2)c(=O)n1)Oc1ccc(Cl)cc1` [Compound 103], the IC50 turned out to be 52 nM in experiment [6] (setting [12]); 18 nM in experiment [7] (setting [13]); 63 nM in experiment [8] (setting [14]); 11 nM in [9] (read-out: IC50 CCRF-CEM 24 h); 50000 nM in experiment [10] (read-out: IC50 CEM/dCK- 24 h). Further, the “Factor* (Resistance Factor = Ratio of dCK- on Wild-type CCRF-CEM)” value in experiment [10] is given as 4,545.

Take `O=C(Nc1ccn([C@@H]2CO[C@H](COC(=O)Oc3ccccc3)O2)c(=O)n1)Oc1ccccc1` [Compound 43]: the IC50 was 10 nM in experiment [6] (setting [12]); 4.1 nM in experiment [7] (setting [13]); 29 nM in experiment [8] (setting [14]); < 0.1 nM in experiment [9] (read-out: IC50 CCRF-CEM 24 h); > 100000 nM in [10] (read-out: IC50 CEM/dCK- 24 h). In addition, in [10], the “Factor* (Resistance Factor = Ratio of dCK- on Wild-type CCRF-CEM)” value is listed as 1,000,000.
